Data on 24 compounds can be found in patent US9822138B2, “Antiviral beta-amino acid ester phosphodiamide compounds” (Merck Sharp & Dohme Corp., priority 2015, dated 2017).

What is called IC50 is the midpoint of a concentration-inhibition curve.

Molecules are shown by their SMILES. Read-outs that look alike come from different tables or passages of the source.

In the experiment the test system is HIV-1 (H9/IIIB strain). In words: microbe, parasite or virus in culture. The experiment is classed as cell-based. The procedure:
Assessing Antiviral Potency in a Multiple Round HIV-1 Infection Assay (Viking Assay)
The antiviral activity of the tenofovir prodrugs of the Examples herein was assessed in an assay that measures the rate of replication of HIV in cell culture, termed the Viking assay (Viral KINetics in Green cells) and performed as follows. HIV-1 replication was monitored using MT4-gag-GFP clone D3 (hereafter designated MT4-GFP), which are MT-4 cells modified to harbor a GFP reporter gene, the expression of which is dependent on the HIV-1 expressed proteins tat and rev. Productive infection of an MT4-GFP cell with HIV-1 results in GFP expression approximately 24 h post-infection. MT4-GFP cells were maintained at 37° C./5% CO2/90% relative humidity in RPMI 1640 supplemented with 10% fetal bovine serum, 100 U/ml penicillin/streptomycin, and 400 μg/ml G418 to maintain the reporter gene. For infections, MT4-GFP cells were placed in the same medium lacking G418 and infected overnight with HIV-1 (H9/IIIB strain) virus at an approximate multiplicity of infection of 0.01 in the same incubation conditions. Cells were then washed and re-suspended in either RPMI 1640 supplemented with 10% or 50% normal human serum (NHS) at 1.6×10^5 cells/mL (10% NHS or 50% NHS, respectively). Compound plates were prepared by dispensing compounds dissolved in DMSO into wells of 384 well poly-D-lysine-coated plates (0.2 μl/well) using an ECHO acoustic dispenser. Each compound was tested in a 10-point serial 3-fold dilution (typical final concentrations: 8.4 μM-0.42 nM). Controls included no inhibitor (DMSO only) and a combination of three antiviral agents (efavirenz, indinavir, an in-house integrase strand transfer inhibitor at final concentrations of 4 μM each). Cells were added ([…]) to compound plates and the infected cells were maintained at 37° C./5% CO2/90% relative humidity.
Infected cells were quantified at two time points, ˜48 h and ˜72 h post-infection, by counting the number of green cells in each well using an Acumen eX3 scanner. […] Inhibition of R0 is calculated for each well, and IC50s determined by non-linear 4-parameter curve fitting.

Setting [1] is: Human immunodeficiency virus 1, 10% normal human serum, MT4-GFP cells infected with HIV-1 H9/IIIB, inhibition of reproductive ratio R0, read-out: Viking, IC50 (10% NHS).
Where [2] appears, read: Human immunodeficiency virus 1, 50% normal human serum, MT4-GFP cells infected with HIV-1 H9/IIIB, inhibition of reproductive ratio R0, read-out: Viking, IC50 (50% NHS).
Setting [3] is: 10% normal human serum, MT4-GFP cells infected with HIV-1 H9/IIIB, inhibition of reproductive ratio R0, read-out: Viking, IC50 (10% NHS).
Setting [4] is: 50% normal human serum, MT4-GFP cells infected with HIV-1 H9/IIIB, inhibition of reproductive ratio R0, read-out: Viking, IC50 (50% NHS).
The mark [5] stands for this setting: Human immunodeficiency virus 1, IIIB, 10% normal human serum, MT4-GFP cells infected with HIV-1 H9/IIIB, inhibition of reproductive ratio R0, read-out: Viking, IC50 (10% NHS).
Where [6] appears, read: Human immunodeficiency virus 1, IIIB, 50% normal human serum, MT4-GFP cells infected with HIV-1 H9/IIIB, inhibition of reproductive ratio R0, read-out: Viking, IC50 (50% NHS).

Consider `CC(C)OC(=O)CCNP(=O)(CO[C@H](C)Cn1cnc2c(N)ncnc21)N[C@@H](C)C(=O)OC(C)C` (single isomer, unassigned) [Example 7B], for which the IC50 was 378 nM under setting [1] and 393 nM under setting [2].
Consider `CC(C)OC(=O)[C@@H](C)CNP(=O)(CO[C@H](C)Cn1cnc2c(N)ncnc21)N[C@H](C)C(=O)OC1CCCCC1` (single isomer, unassigned) [Example 21B], for which the half-inhibitory concentration (IC50) by setting is: under setting [3], 270 nM; under setting [4], 836 nM.
On to `CCCCOC(=O)[C@H](C)NP(=O)(CO[C@H](C)Cn1cnc2c(N)ncnc21)NC[C@H](C)C(=O)OC(C)C` (single isomer, unassigned) [Example 15A], for which the IC50 was found to be 19.6 nM under setting [5] and 146 nM under setting [6].
The matching figures for `CC(C)OC(=O)[C@@H](C)CNP(=O)(CO[C@H](C)Cn1cnc2c(N)ncnc21)NC[C@H](C)C(=O)OC(C)C` [Example 3, 1-methylethyl (5S,11S)-8-{[(1R)-2-(6-amino-9H-purin-9-yl)-1-methylethoxy]methyl}-2,5,11-trimethyl-4-oxo-3-oxa-7,9-diaza-8-phosphadodecan-12-oate 8-oxide]: 7340 nM and over 8400 nM.
Consider `CC(C)OC(=O)CCNP(=O)(CO[C@H](C)Cn1cnc2c(N)ncnc21)N[C@H](C)C(=O)OC1CCC1` (single isomer, unassigned) [Example 23A], for which the IC50 under setting [3] is over 8400 nM and the IC50 under setting [4] is over 8400 nM.
On to `CC(C)OC(=O)CCNP(=O)(CO[C@H](C)Cn1cnc2c(N)ncnc21)NCCC(=O)OC(C)C` [Example 1, 1-methylethyl 8-{[(1R)-2-(6-amino-9H-purin-9-yl)-1-methylethoxy]methyl}-2-methyl-4-oxo-3-oxa-7,9-diaza-8-phosphadodecan-12-oate 8-oxide], for which the IC50 reads like this: (Human immunodeficiency virus 1, IIIB, read-out: Viking, IC50 (10% NHS)) over 8400 nM; (Human immunodeficiency virus 1, IIIB, read-out: Viking, IC50 (50% NHS)) over 8400 nM.
As to `CC(C)OC(=O)C[C@H](C)NP(=O)(CO[C@H](C)Cn1cnc2c(N)ncnc21)N[C@@H](C)CC(=O)OC(C)C` [Example 5, 1-methylethyl (6S,10S)-8-{[(1R)-2-(6-amino-9H-purin-9-yl)-1-methylethoxy]methyl}-2,6,10-trimethyl-4-oxo-3-oxa-7,9-diaza-8-phosphadodecan-12-oate 8-oxide], the IC50 is, setting by setting: under setting [5], over 8400 nM; under setting [6], over 8400 nM.
On to `CC(C)OC(=O)C[C@@H](C)NP(=O)(CO[C@H](C)Cn1cnc2c(N)ncnc21)N[C@H](C)C(=O)OC1CCC1` (some centres unmarked) [Example 18B], for which the IC50 is, setting by setting: under setting [1], 3810 nM; under setting [2], 7120 nM.
Consider `CCCCCOC(=O)C(C)(C)N[P@@](=O)(CO[C@H](C)Cn1cnc2c(N)ncnc21)N[C@@H](CC(=O)OC(C)C)C(C)C` [Example 24B], for which the IC50 came out at 28.9 nM under setting [1] and 170 nM under setting [2].
In the case of `CC(C)OC(=O)[C@H](C)CNP(=O)(CO[C@H](C)Cn1cnc2c(N)ncnc21)NC[C@@H](C)C(=O)OC(C)C` [Example 4, 1-methylethyl (5R,11R)-8-{[(1R)-2-(6-amino-9H-purin-9-yl)-1-methylethoxy]methyl}-2,5,11-trimethyl-4-oxo-3-oxa-7,9-diaza-8-phosphadodecan-12-oate 8-oxide], the IC50 is, setting by setting: under setting [5], 6460 nM; under setting [6], over 8400 nM.
For the compound `CC(C)OC(=O)C[C@@H](C)NP(=O)(CO[C@H](C)Cn1cnc2c(N)ncnc21)N[C@@H](C)C(=O)OC(C)C` (single isomer, unassigned) [Example 9B], the IC50 by setting is: under setting [3], 378 nM; under setting [4], 800 nM.
As for `CC(C)OC(=O)[C@@H](C)CNP(=O)(CO[C@H](C)Cn1cnc2c(N)ncnc21)N[C@H](C)C(=O)OC1CCC1` (single isomer, unassigned) [Example 20A], the IC50 reads like this: under setting [3], 859 nM; under setting [4], 4100 nM.
For the compound `CC(C)OC(=O)[C@@H](C)CNP(=O)(CO[C@H](C)Cn1cnc2c(N)ncnc21)N[C@H](C)C(=O)OC1CCCC1` (single isomer, unassigned) [Example 22A], the 50% inhibitory concentration (IC50) was 400 nM under setting [3] and 480 nM under setting [6].
With `CC(C)OC(=O)[C@@H](C)CNP(=O)(CO[C@H](C)Cn1cnc2c(N)ncnc21)N[C@@H](C)C(=O)OC1CCC1` (single isomer, unassigned) [Example 12A], the IC50 by setting is: under setting [5], 41.7 nM; under setting [6], 119 nM.
In the case of `CC(C)OC(=O)C[C@H](C)NP(=O)(CO[C@H](C)Cn1cnc2c(N)ncnc21)N[C@H](C)C(=O)OC1CCC1` (single isomer, unassigned) [Example 19B], the IC50 runs as follows: under setting [3], 3790 nM; under setting [4], over 8400 nM.
For the compound `CC(C)OC(=O)[C@@H](C)CNP(=O)(CO[C@H](C)Cn1cnc2c(N)ncnc21)N[C@H](C)C(=O)OC1CCCCC1` (single isomer, unassigned) [Example 21A], the IC50 under setting [3] stood at 1460 nM.
As for `CC(C)OC(=O)[C@@H](C)CNP(=O)(CO[C@H](C)Cn1cnc2c(N)ncnc21)N[C@@H](C)C(=O)OC1CCCCC1` (single isomer, unassigned) [Example 13B], the IC50 reads like this: under setting [3], 34.2 nM; under setting [4], 175 nM.
Turning to `CC(C)OC(=O)[C@H](C)NP(=O)(CO[C@H](C)Cn1cnc2c(N)ncnc21)NC[C@H](C)C(=O)OC(C)C` (some centres unmarked) [Example 6B], the IC50 is 258 nM under setting [1] and 494 nM under setting [2].
As to `CC(C)OC(=O)[C@@H](C)CNP(=O)(CO[C@H](C)Cn1cnc2c(N)ncnc21)N[C@@H](C)C(=O)OC1CCCC1` (single isomer, unassigned) [Example 11A], the IC50 runs as follows: under setting [5], 21.5 nM; under setting [6], 104 nM.
On to `CC(C)OC(=O)C[C@@H](C)NP(=O)(CO[C@H](C)Cn1cnc2c(N)ncnc21)N[C@H](C)CC(=O)OC(C)C` [Example 2, 1-methylethyl (6R,10R)-8-{[(1R)-2-(6-amino-9H-purin-9-yl)-1-methylethoxy]methyl}-2,6,10-trimethyl-4-oxo-3-oxa-7,9-diaza-8-phosphadodecan-12-oate 8-oxide], for which the IC50 reads like this: under setting [5], over 8400 nM; under setting [6], over 8400 nM.
Regarding `CCCCCOC(=O)C(C)(C)NP(=O)(CO[C@H](C)Cn1cnc2c(N)ncnc21)N[C@@H](C)CC(=O)OC(C)C` (single isomer, unassigned) [Example 26A], the IC50 is, setting by setting: under setting [3], 23.3 nM; under setting [4], 116 nM.
For `CC(C)OC(=O)C[C@H](C)NP(=O)(CO[C@H](C)Cn1cnc2c(N)ncnc21)N[C@@H](C)C(=O)OC(C)C` (single isomer, unassigned) [Example 8B], the IC50 runs as follows: under setting [3], 439 nM; under setting [4], 531 nM.
Consider `CC(C)OC(=O)[C@H](C)CNP(=O)(CO[C@H](C)Cn1cnc2c(N)ncnc21)N[C@@H](C)C(=O)OC(C)C` (single isomer, unassigned) [Example 10B], for which the IC50 turned out to be 435 nM under setting [3] and 908 nM under setting [4].
For the compound `CCCCCCOC(=O)C(C)(C)NP(=O)(CO[C@H](C)Cn1cnc2c(N)ncnc21)N[C@@H](CC(=O)OC(C)C)C(C)C` (single isomer, unassigned) [Example 28A], the IC50 under setting [3] was determined as 19.1 nM and the IC50 under setting [4] came out at 58.5 nM.
